Results reported in US9409952B2, “Peptide-compound cyclization method” (Chugai Seiyaku Kabushiki Kaisha, priority 2011, dated 2016).
Starred links: 1 amine or outer side, 2 acyl side, 3 side chain; linkers in the order of their positions; H or OH if unused. Positions of bridges follow the written chain, without caps; N, C: chain ends. Non-standard residues stand in square brackets, D forms with d. Residues, ends and D or L forms follow the SMILES beside them. ξ: configuration not given here. *: point of attachment. NMeF = CN[C@@H](Cc1ccccc1)C(=O)O; NMeβAla = CN(CCC(=O)[*:2])[*:1]; NMeL = CN[C@@H](CC(C)C)C(=O)O; ξNMeF = CNC(Cc1ccccc1)C(=O)O; NMeV = CN[C@H](C(=O)O)C(C)C; NMeA = CN[C@@H](C)C(=O)O; Piperidide = C1CCN(*)CC1; dNMeA = CN[C@H](C)C(=O)O; Sar = CNCC(=O)O

Assays:
[1] = Metabolic stability in human hepatic microsome; type: in vitro ADME; conditions: microsomes, pH 7.4; human hepatic microsome, NADPH(+); read-out: CL NADPH(+)
[2] = PAMPA (parallel artificial membrane permeability assay); type: in vitro ADME; conditions: PAMPA; membrane permeation rate (Pe); 50 mM MOPSO buffer pH 6.5 with 5.0% glycocholic acid, 37° C., 18 hours; read-out: iPAMPA Pe
In short: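 Artificial membrane was 10% (w/v) egg lecithin plus 0.5% (w/v) cholesterol in dodecane on a PVDF filter. A 10 mM DMSO stock was added at 0.5% (v/v) to donor buffer (50 mM MOPSO, pH 6.5, 5.0% glycocholic acid). After 18 h at 37 °C, LC/MS or LC/UV gave donor and acceptor levels for Pe.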

SMILES	microsomal CLint at 1 uM [1] [µL/min/mg]	Papp at 18 hours, 50 µM [2] [×10⁻⁶ cm/s]
CC[C@H](C)[C@@H]1NC(=O)[C@@H](C)N(C)C(=O)C[C@@H](C(=O)N(C)[C@@H](Cc2ccccc2)C(=O)N[C@@H](C)C(=O)N2CCCCC2)NC(=O)[C@H](Cc2ccccc2)N(C)C(=O)CN(C)C(=O)[C@H]([C@@H](C)O)NC(=O)[C@H](C)N(C)C(=O)[C@H](C(C)C)N(C)C(=O)[C@H](Cc2ccccc2)NC(=O)[C@H](CC(C)C)N(C)C(=O)[C@H](CC(C)C)N(C)C1=O [DP-183] ([dNMeA]I[NMeL][NMeL]F[NMeV][NMeA]T[Sar][NMeF]D[NMeF]A-Piperidide; lactam N-11)	25	29
CC(C)C[C@@H]1NC(=O)[C@H]([C@@H](C)O)NC(=O)[C@@H]2CCCN2C(=O)CNC(=O)[C@H](CC(C)C)N(C)C(=O)[C@H](Cc2ccccc2)NC(=O)[C@H](CC(C)C)N(C)C(=O)[C@H](CC(C)C)N(C)C(=O)[C@H](Cc2ccccc2)NC(=O)CN(C)C(=O)C[C@@H](C(=O)N(C)C(Cc2ccccc2)C(=O)N[C@@H](C)C(=O)N2CCCCC2)NC1=O (some centres unmarked) [DP-185] ([Sar]F[NMeL][NMeL]F[NMeL]GPTLD[ξNMeF]A-Piperidide; lactam N-11)	19	46
CC(C)C[C@H]1C(=O)N(C)[C@@H](C(C)C)C(=O)N[C@@H](C(C)C)C(=O)N[C@H](C(=O)N(C)[C@@H](Cc2ccccc2)C(=O)N[C@@H](C)C(=O)N2CCCCC2)CC(=O)N[C@@H](C)C(=O)N[C@@H](Cc2ccccc2)C(=O)N(C)[C@@H](CC(C)C)C(=O)N[C@@H]([C@@H](C)O)C(=O)N(C)[C@@H](Cc2ccccc2)C(=O)NCC(=O)N1C [DP-187] (AF[NMeL]T[NMeF]G[NMeL][NMeV]VD[NMeF]A-Piperidide; lactam N-10)	22	43
CC(C)C[C@H]1C(=O)N(C)[C@@H](CC(C)C)C(=O)N[C@H](C(=O)N(C)[C@@H](Cc2ccccc2)C(=O)N[C@@H](C)C(=O)N2CCCCC2)CC(=O)N[C@@H](C)C(=O)N(C)[C@@H](C)C(=O)N(C)[C@@H](Cc2ccccc2)C(=O)N(C)[C@@H](CC(C)C)C(=O)N[C@@H]([C@@H](C)O)C(=O)N(C)CC(=O)N[C@@H](C(C)C)C(=O)N1C [DP-188] (A[NMeA][NMeF][NMeL]T[Sar]V[NMeL][NMeL]D[NMeF]A-Piperidide; lactam N-10)	84	28
CC[C@H](C)[C@@H]1NC(=O)[C@H](Cc2ccccc2)N(C)C(=O)[C@H]([C@@H](C)O)NC(=O)[C@@H](C)NC(=O)C[C@@H](C(=O)N(C)[C@@H](Cc2ccccc2)C(=O)N[C@@H](C)C(=O)N2CCCCC2)NC(=O)[C@H](CC(C)C)N(C)C(=O)[C@H](CC(C)C)N(C)C(=O)[C@H](Cc2ccccc2)N(C)C(=O)[C@H](CC(C)C)N(C)C(=O)[C@H](C)N(C)C1=O [DP-189] ([dA]T[NMeF]I[NMeA][NMeL][NMeF][NMeL][NMeL]D[NMeF]A-Piperidide; lactam N-10)	3	1.4
CC[C@H](C)[C@@H]1NC(=O)[C@H](C)N(C)C(=O)[C@H](CC(C)C)N(C)C(=O)[C@@H](C(C)C)NC(=O)C[C@@H](C(=O)N(C)[C@@H](Cc2ccccc2)C(=O)N[C@@H](C)C(=O)N2CCCCC2)NC(=O)[C@H]([C@@H](C)O)NC(=O)[C@H](CC(C)C)N(C)C(=O)[C@H](Cc2ccccc2)N(C)C(=O)[C@H](CC(C)C)N(C)C(=O)[C@H](Cc2ccccc2)N(C)C1=O [DP-190] ([dV][NMeL][NMeA]I[NMeF][NMeL][NMeF][NMeL]TD[NMeF]A-Piperidide; lactam N-10)	3	0.6
CC(C)C[C@H]1C(=O)N(C)[C@@H](Cc2ccccc2)C(=O)N(C)[C@@H](C(C)C)C(=O)N[C@@H](Cc2ccccc2)C(=O)N[C@H](C(=O)N(C)[C@@H](Cc2ccccc2)C(=O)N[C@@H](C)C(=O)N2CCCCC2)CC(=O)N(C)[C@@H](C)C(=O)N[C@@H](C(C)C)C(=O)N(C)[C@@H](CC(C)C)C(=O)N[C@@H]([C@@H](C)O)C(=O)NCC(=O)N1C [DP-191] ([NMeA]V[NMeL]TG[NMeL][NMeF][NMeV]FD[NMeF]A-Piperidide; lactam N-10)	46	34
CC(C)C[C@H]1C(=O)N[C@@H]([C@@H](C)O)C(=O)N(C)[C@@H](Cc2ccccc2)C(=O)N(C)[C@@H](CC(C)C)C(=O)NCC(=O)N(C)[C@@H](C(C)C)C(=O)N[C@@H](Cc2ccccc2)C(=O)N[C@H](C(=O)N(C)[C@@H](Cc2ccccc2)C(=O)N[C@@H](C)C(=O)N2CCCCC2)CC(=O)N(C)CCC(=O)N[C@@H](C(C)C)C(=O)N1C [DP-193] ([NMeβAla]V[NMeL]T[NMeF][NMeL]G[NMeV]FD[NMeF]A-Piperidide; lactam N-10)	124	53
CC(C)C[C@H]1C(=O)N(C)[C@@H](CC(C)C)C(=O)N[C@H](C(=O)N(C)[C@@H](Cc2ccccc2)C(=O)N[C@@H](C)C(=O)N2CCCCC2)CC(=O)N(C)CCC(=O)N(C)[C@@H](C)C(=O)N(C)[C@@H](CC(C)C)C(=O)N[C@@H]([C@@H](C)O)C(=O)N(C)[C@@H](Cc2ccccc2)C(=O)N[C@@H](C(C)C)C(=O)N(C)CC(=O)N1C [DP-194] ([NMeβAla][NMeA][NMeL]T[NMeF]V[Sar][NMeL][NMeL]D[NMeF]A-Piperidide; lactam N-10)	72	22
CC[C@H](C)[C@@H]1NC(=O)[C@H](C)N(C)C(=O)[C@H]([C@@H](C)O)NC(=O)[C@H](C)N(C)C(=O)[C@H](C(C)C)N(C)C(=O)[C@H](Cc2ccccc2)NC(=O)CN(C)C(=O)C[C@@H](C(=O)N(C)[C@@H](Cc2ccccc2)C(=O)N[C@@H](C)C(=O)N2CCCCC2)NC(=O)[C@H](C)N(C)C(=O)[C@H](CC(C)C)N(C)C1=O [DP-195] ([Sar]F[NMeV][NMeA]T[NMeA]I[NMeL][NMeA]D[NMeF]A-Piperidide; lactam N-10)	52	8
CC(C)C[C@H]1C(=O)N[C@@H](C(C)C)C(=O)N[C@H](C(=O)N(C)[C@@H](Cc2ccccc2)C(=O)N[C@@H](C)C(=O)N2CCCCC2)CC(=O)N[C@@H](C)C(=O)N(C)[C@@H](Cc2ccccc2)C(=O)N(C)[C@@H](C)C(=O)N(C)[C@@H](CC(C)C)C(=O)N[C@@H]([C@@H](C)O)C(=O)N(C)CC(=O)N1C [DP-196] (A[NMeF][NMeA][NMeL]T[Sar][NMeL]VD[NMeF]A-Piperidide; lactam N-9)	65	29
CC(C)C[C@H]1C(=O)N[C@H](C(=O)N(C)[C@@H](Cc2ccccc2)C(=O)N[C@@H](C)C(=O)N2CCCCC2)CC(=O)N[C@H](C)C(=O)N(C)[C@@H](Cc2ccccc2)C(=O)N(C)[C@@H](CC(C)C)C(=O)N[C@@H]([C@@H](C)O)C(=O)N(C)[C@@H](C)C(=O)N(C)[C@@H](CC(C)C)C(=O)N[C@@H](C(C)C)C(=O)N1C [DP-197] ([dA][NMeF][NMeL]T[NMeA][NMeL]V[NMeL]D[NMeF]A-Piperidide; lactam N-9)	48	27
CC(C)C[C@H]1C(=O)N[C@@H](C(C)C)C(=O)N[C@H](C(=O)N(C)[C@@H](Cc2ccccc2)C(=O)N[C@@H](C)C(=O)N2CCCCC2)CC(=O)N[C@H](C(C)C)C(=O)N(C)[C@@H](Cc2ccccc2)C(=O)N(C)[C@@H](C)C(=O)N(C)[C@@H](CC(C)C)C(=O)N[C@@H]([C@@H](C)O)C(=O)N(C)CC(=O)N1C [DP-198] ([dV][NMeF][NMeA][NMeL]T[Sar][NMeL]VD[NMeF]A-Piperidide; lactam N-9)	34	36
